Data taken from patent US5482964A, “Substituted phenoxyhydroxypropyl amines as central nervous system agents” (Warner-Lambert Company, priority 1994, dated 1996).

Legend:
P-type calcium channels = molecular target: T1, P-type calcium channels (Rattus norvegicus, UniProt P54282); test: Inhibition of depolarization induced Ca++ flux (CaFl), 45Ca++ influx into rat neocortical synaptosomes; assay type: biochemical; conditions: for IC50: 30 mM KCl stimulated 45Ca flux, rat neocortical synaptosomes; for inhibition at 10 µM / inhibition at 30 µM: read-out: CaFl, percent inhibition
T1 construct: Male rats (Sprague-Dawley, 200-220 g) were killed by decapitation and neocortices were isolated by blunt dissection; from tissue; host or cells: Sprague-Dawley rat neocortex, crude synaptosomes
Source text: A large influx of calcium from extracellular compartments into neurons is observed after opening of voltage-dependent calcium channels. The opening of calcium channels may be induced by a K^+ -stimulated depolarization of neuronal membranes. A crude synaptosomal preparation contains small vesicles surrounded by neuronal membranes, and it is feasible to study the opening of voltage-operated calcium channels in such a preparation. In the test described below, the influx of ^45 Ca^++ into rat synaptosomes is studied under depolarized conditions. The effect of the test compounds on the depolarization induced calcium update can thus be studied. The calcium influx measured in this assay is believed to represent the P-type calcium channels.
Male rats (Sprague-Dawley, 200-220 g) were killed by decapitation and neocortices were isolated by blunt dissection. White matter was dissected away and the gray matter was placed in cold sucrose buffer (composition (mM): sucrose 320, TRIS base 5.0, EDTA 0.1; adjusted to pH 7.3 with HCl). The tissue was homogenized using 5 strokes at 500 rpm followed by 4 strokes at 800 rpm. The homogenate was centrifuged at 1075 g for 10 minutes. The pellet was discarded and the supernatant was centrifuged at 15800 g for 10 minutes at 4° C., and the supernatant was discarded. The final pellet was resuspended in incubation buffer and kept on ice.
Fifty-microliter aliquots of neocortical synaptosome suspension were preincubated for 5 minutes at 25° C. in 400 μL of incubation buffer containing drug or control solvent. The synaptosomes were then exposed to a tracer quantity of ^45 CaCl2 (1 μCi/mL) in combination with either 3 mM KCl (basal calcium flux or 30 mM KCl (stimulated calcium flux). The calcium flux was terminated by filtration over glass-fiber filters (GFB) using a Skatron 12-well harvester; filters were washed with a pressurized, continuous flow of 3 mL wash buffer (composition (mM): choline chloride 140, EGTA 3, HEPES 22; adjusted to pH 7.3 with TRIS base). Radioactivity of the filters was measured by scintillation counting. Basal calcium flux was subtracted from stimulated calcium flux in both control- and drug-treated conditions, and data were expressed as percent inhibition of the adjusted control response.

sodium channels = conditions: rat neocortical membranes, 5 nM [3H]batrachotoxinin, Cheng-Prusoff; read-out: BTX Binding
male CF-1 mice = test: Maximal electroshock (MES) anticonvulsant screen in mice; assay type: in vivo
Procedure: All experiments were conducted on male CF-1 mice (Charles River Laboratory, Portage, Mich.). The mice weighed 20 to 35 g and were allowed free access to food and water prior to testing. The compounds were dissolved in various solutions of up to 50% organic solvents and 50% buffered solutions. All doses were injected intravenously (IV) in a volume of 1.0 mL per 100 g of body weight using a 25-gauge needle and a 1 cc syringe. Doses of the compounds were calculated as the free base.
Maximal electroshock was administered via corneal electrodes with an electroshock apparatus (Wahlquist Instrument Company) immediately following the inverted screen test. The stimulus consisted of a 50 mA current (100 mA peak-to-peak) and duration of 0.2 seconds. The protocol for the MES assay involved groups of five mice per dose at each time period postdose. […] The mice were sacrificed with carbon dioxide immediately after MES. Anticonvulsant data were recorded as the number of mice protected from MES out of five. Two out of five were considered active.

T1 sequence (P54282 whole entry): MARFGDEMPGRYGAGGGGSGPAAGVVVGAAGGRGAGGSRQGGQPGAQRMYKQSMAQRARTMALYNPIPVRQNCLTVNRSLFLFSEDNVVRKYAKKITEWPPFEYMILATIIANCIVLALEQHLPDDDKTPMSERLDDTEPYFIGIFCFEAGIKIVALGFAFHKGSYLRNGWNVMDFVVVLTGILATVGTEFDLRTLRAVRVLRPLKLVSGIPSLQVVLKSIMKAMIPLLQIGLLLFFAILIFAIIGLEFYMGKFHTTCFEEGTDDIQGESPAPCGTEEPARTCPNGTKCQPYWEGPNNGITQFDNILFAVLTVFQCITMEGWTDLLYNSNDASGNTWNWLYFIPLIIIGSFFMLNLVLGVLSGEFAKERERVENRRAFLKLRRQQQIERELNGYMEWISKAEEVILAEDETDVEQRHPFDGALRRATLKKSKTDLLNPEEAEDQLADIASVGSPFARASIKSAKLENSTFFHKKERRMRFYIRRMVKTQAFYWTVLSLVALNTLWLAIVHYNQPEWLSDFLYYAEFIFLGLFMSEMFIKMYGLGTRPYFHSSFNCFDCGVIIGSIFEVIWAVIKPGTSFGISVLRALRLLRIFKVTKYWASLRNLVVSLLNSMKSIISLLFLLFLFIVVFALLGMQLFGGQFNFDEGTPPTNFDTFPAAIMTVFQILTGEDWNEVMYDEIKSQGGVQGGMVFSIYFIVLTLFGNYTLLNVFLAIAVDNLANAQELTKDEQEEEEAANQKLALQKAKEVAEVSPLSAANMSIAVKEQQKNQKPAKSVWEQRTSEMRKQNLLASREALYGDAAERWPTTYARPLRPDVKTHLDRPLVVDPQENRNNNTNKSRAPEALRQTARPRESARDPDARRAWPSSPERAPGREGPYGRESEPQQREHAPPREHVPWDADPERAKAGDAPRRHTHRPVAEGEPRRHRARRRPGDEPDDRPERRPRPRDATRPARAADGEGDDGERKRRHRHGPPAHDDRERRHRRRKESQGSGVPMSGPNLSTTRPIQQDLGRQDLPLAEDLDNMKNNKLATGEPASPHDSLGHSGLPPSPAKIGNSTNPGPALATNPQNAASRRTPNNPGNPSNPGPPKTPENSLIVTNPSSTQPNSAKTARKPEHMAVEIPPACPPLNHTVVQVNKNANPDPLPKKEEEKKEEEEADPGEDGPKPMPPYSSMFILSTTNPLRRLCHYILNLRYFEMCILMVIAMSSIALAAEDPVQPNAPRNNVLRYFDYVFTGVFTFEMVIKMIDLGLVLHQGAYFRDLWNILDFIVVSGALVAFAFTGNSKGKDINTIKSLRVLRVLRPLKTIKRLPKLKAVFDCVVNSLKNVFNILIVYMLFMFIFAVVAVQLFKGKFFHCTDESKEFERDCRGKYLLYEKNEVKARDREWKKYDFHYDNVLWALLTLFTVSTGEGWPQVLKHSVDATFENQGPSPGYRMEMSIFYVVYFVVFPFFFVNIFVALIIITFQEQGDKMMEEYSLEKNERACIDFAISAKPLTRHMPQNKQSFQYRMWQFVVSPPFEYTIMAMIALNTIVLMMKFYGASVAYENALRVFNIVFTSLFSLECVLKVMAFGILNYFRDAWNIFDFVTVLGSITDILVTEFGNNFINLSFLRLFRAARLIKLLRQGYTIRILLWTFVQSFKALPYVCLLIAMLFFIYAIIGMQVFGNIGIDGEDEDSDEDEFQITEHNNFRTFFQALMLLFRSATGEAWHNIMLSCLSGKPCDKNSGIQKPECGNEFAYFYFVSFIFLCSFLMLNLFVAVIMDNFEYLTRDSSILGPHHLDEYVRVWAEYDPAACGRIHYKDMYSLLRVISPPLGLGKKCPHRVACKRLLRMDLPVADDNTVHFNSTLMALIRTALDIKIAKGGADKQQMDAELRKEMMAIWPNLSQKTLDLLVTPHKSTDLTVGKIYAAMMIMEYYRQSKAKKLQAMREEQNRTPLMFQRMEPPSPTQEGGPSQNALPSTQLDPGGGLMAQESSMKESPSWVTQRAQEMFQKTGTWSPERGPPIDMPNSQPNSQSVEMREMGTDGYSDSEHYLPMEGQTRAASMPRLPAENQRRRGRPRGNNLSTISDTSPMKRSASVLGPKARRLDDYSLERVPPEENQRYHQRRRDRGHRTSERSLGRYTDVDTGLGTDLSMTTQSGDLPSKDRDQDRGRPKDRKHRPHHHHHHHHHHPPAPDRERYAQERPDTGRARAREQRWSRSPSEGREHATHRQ

COc1ccc(CCN(CC(O)COc2cccc(C)c2)CC2CCCCC2)cc1OC (stereo not shown) [Example 23, 1-{Cyclohexylmethyl-[2-(3,4-dimethoxyphenyl)ethyl]-amino}-3-m-tolyloxy-propan-2-ol]
IC50 (P-type calcium channels): 1.9 µM

COc1ccc(CCN(Cc2ccccc2)CC(O)COc2ccc(C3CCCCC3)cc2C)cc1OC (stereo not shown) [Example 15, 1-{Benzyl-[2-(3,4-dimethoxyphenyl)-ethyl]-amino}-3-(4-cyclohexyl-2-methylphenoxy)-propan-2-ol]
IC50 (P-type calcium channels): 9.2 µM

COc1ccc(CCN(Cc2cccc(Cl)c2)CC(O)COc2cccc(C)c2)cc1OC (stereo not shown) [Example 7, 1-{(3-Chlorobenzyl)-[2-(3,4-dimethoxyphenyl)ethyl]-amino}-3-m-tolyloxy-propan-2-ol]
inhibition at 10 µM (P-type calcium channels): 47%

COc1ccc(CCN(C)CC(O)COc2ccc(OCc3ccccc3)cc2)cc1OC (stereo not shown) [Example 26, 1-(4-Benzyloxyphenoxy)-3-{[2-(3,4-dimethoxyphenyl)ethyl]-methylamino}-propan-2-ol]
IC50 (P-type calcium channels): 3.3 µM

COc1ccc(CCN(C)CC(O)COc2ccc(C3CCCCC3)cc2C)cc1OC (stereo not shown) [Example 24, 1-(4-Cyclohexyl-2-methylphenoxy)-3-{[2-(3,4-dimethoxyphenyl)-ethyl]-methylamino}-propan-2-ol]
Ki (sodium channels): 0.31 µM
IC50 (P-type calcium channels): 2.1 µM
MES, number of mice protected (male CF-1 mice; 1 mg/kg IV, 3 min postdose): 0/5
MES, number of mice protected (male CF-1 mice; 1 mg/kg IV, 30 min postdose): 0/5
MES, number of mice protected (male CF-1 mice; 3 mg/kg IV, 3 min postdose): 0/5
MES, number of mice protected (male CF-1 mice; 3 mg/kg IV, 30 min postdose): 1/5
MES, number of mice protected (male CF-1 mice; 3 mg/kg IV, 1 hr postdose): 1/5
MES, number of mice protected (male CF-1 mice; 10 mg/kg IV, 3 min postdose): 4/5
MES, number of mice protected (male CF-1 mice; 10 mg/kg IV, 30 min postdose): 4/5
Animals died in this group (male CF-1 mice; 10 mg/kg IV, 1 hr group): 1/5
MES, number of mice protected (male CF-1 mice; 10 mg/kg IV, 1 hr postdose): 3/4

COc1ccc(CCN(Cc2cccc([N+](=O)[O-])c2)CC(O)COc2cccc(C)c2)cc1OC (stereo not shown) [Example 6, 1-[[2-(3,4-Dimethoxyphenyl)-ethyl]-(3-nitrobenzyl)amino]-3-m-tolyloxy-propan-2-ol]
inhibition at 10 µM (P-type calcium channels): 57%
inhibition at 30 µM (P-type calcium channels): 62%

COc1ccc(CCN(Cc2ccc(Cl)cc2)CC(O)COc2cccc(C)c2)cc1OC (stereo not shown) [Example 3, 1-{(4-Chlorobenzyl)-[2-(3,4-dimethoxyphenyl)-ethyl]-amino}-3-m-tolyloxy-propan-2-ol]
inhibition at 10 µM (P-type calcium channels): 44%
inhibition at 30 µM (P-type calcium channels): 77%

COc1ccc(CCN(Cc2ccccc2)CC(O)CSc2cccc3ccccc23)cc1OC (stereo not shown) [Example 19, 1-{Benzyl-[2-(3,4-dimethoxyphenyl)-ethyl]-amino}-3-(naphthalen-1-ylsulfanyl)-propan-2-ol]
Ki (sodium channels): 0.2 µM
IC50 (P-type calcium channels): 2.5 µM

COc1ccc(CCN(C)CC(O)COc2cccc(C)c2)cc1OC (stereo not shown) [Example 25, 1-{[2-(3,4-Dimethoxyphenyl)-ethyl]-methylamino}-3-m-tolyloxy-propan-2-ol]
inhibition at 30 µM (P-type calcium channels): 31%

COc1ccc(CCN(CCc2ccccc2)CC(O)COc2cccc(C)c2)cc1OC (stereo not shown) [Example 22, 1-{[2-(3,4-Dimethoxyphenyl)ethyl]-phenethylamino}-3-m-tolyloxy-propan-2-ol]
IC50 (P-type calcium channels): 1.4 µM

COc1ccc(CCN(Cc2ccccc2)CC(O)COc2cccc3ccccc23)cc1OC (stereo not shown) [Example 18, 1-{Benzyl-[2-(3,4-dimethoxyphenyl)-ethyl]-amino}-3-(naphthalen-1-yloxy)-propan-2-ol]
IC50 (P-type calcium channels): 8.1 µM

COc1ccc(CCN(Cc2ccccc2[N+](=O)[O-])CC(O)COc2cccc(C)c2)cc1OC (stereo not shown) [Example 11, 1-[[2-(3,4-Dimethoxyphenyl)-ethyl]-(2-nitrobenzyl)amino]-3-m-tolyloxy-propan-2-ol]
IC50 (P-type calcium channels): 3.1 µM

COc1ccc(CCN(C)CC(O)COc2ccc3c(c2)CCC3)cc1OC (stereo not shown) [Example 27]
inhibition at 10 µM (P-type calcium channels): 43%
inhibition at 30 µM (P-type calcium channels): 69%

COc1ccc(CCN(Cc2ccc([N+](=O)[O-])cc2)CC(O)COc2cccc(C)c2)cc1OC (stereo not shown) [Example 5, 1-[[2-(3,4-Dimethoxyphenyl)-ethyl]-(4-nitrobenzyl)amino]-3-m-tolyloxy-propan-2-ol]
inhibition at 10 µM (P-type calcium channels): 59%
inhibition at 30 µM (P-type calcium channels): 62%

COc1ccc(CCN(C)CC(O)CSc2cccc3ccccc23)cc1OC (stereo not shown) [Example 29, 1-{[2-(3,4-Dimethoxyphenyl)-ethyl]-methylamino}-3-(naphthalen-1-ylsulfanyl)-propan-2-ol]
IC50 (P-type calcium channels): 3.6 µM

COc1ccc(CCN(Cc2ccccc2)CC(O)COc2ccc(OCc3ccccc3)cc2)cc1OC (stereo not shown) [Example 14, 1-{Benzyl-[2-(3,4-dimethoxyphenyl)-ethyl]-amino}-3-(4-benzyloxyphenoxy)-propan-2-ol]
Ki (sodium channels): 0.016 µM
IC50 (P-type calcium channels): 5 µM

COc1ccccc1CN(CCc1ccc(OC)c(OC)c1)CC(O)COc1cccc(C)c1 (stereo not shown) [Example 12, 1-[[2-(3,4-Dimethoxyphenyl)-ethyl]-(2-methoxybenzyl)amino]-3-m-tolyloxy-propan-2-ol]
IC50 (P-type calcium channels): 4.1 µM

COc1ccc(CCN(Cc2ccccc2Cl)CC(O)COc2cccc(C)c2)cc1OC (stereo not shown) [Example 17, 1-{(2-Chlorobenzyl)-[2-(3,4-dimethoxyphenyl)ethyl]-amino}-3-m-tolyloxy-propan-2-ol]
inhibition at 10 µM (P-type calcium channels): 46%
inhibition at 30 µM (P-type calcium channels): 55%

COc1cccc(CN(CCc2ccc(OC)c(OC)c2)CC(O)COc2cccc(C)c2)c1 (stereo not shown) [Example 10, 1-[[2-(3,4-Dimethoxyphenyl)-ethyl]-(3-methoxybenzyl)amino]-3-m-tolyloxy-propan-2-ol]
IC50 (P-type calcium channels): 5.1 µM

COc1ccc(CCN(C)CC(O)COc2cccc3ccccc23)cc1OC (stereo not shown) [Example 28, 1-{[2-(3,4-Dimethoxyphenyl)-ethyl]-methylamino}-3-(naphthalen-1-yloxy)-propan-2-ol]
IC50 (P-type calcium channels): 6.8 µM

COc1ccc(CN(CCc2ccc(OC)c(OC)c2)CC(O)COc2cccc(C)c2)cc1 (stereo not shown) [Example 8, 1-[[2-(3,4-Dimethoxyphenyl)-ethyl]-(4-methoxybenzyl)amino]-3-m-tolyloxy-propan-2-ol]
Ki (sodium channels): 0.152 µM
IC50 (P-type calcium channels): 5.4 µM

COc1ccc(CCN(Cc2ccc(F)cc2)CC(O)COc2cccc(C)c2)cc1OC (stereo not shown) [Example 1, 1-[[2-(3,4-Dimethoxyphenyl)-ethyl]-(4-fluorobenzyl)amino]-3-m-tolyloxy-propan-2-ol]
IC50 (P-type calcium channels): 5.2 µM

COc1ccc(CCN(Cc2ccccc2)CC(O)COc2cccc(C)c2)cc1OC (stereo not shown) [Example 2, 1-{Benzyl-[2-(3,4-dimethoxyphenyl)-ethyl]amino}-3-m-tolyloxy-propan-2-ol]
Ki (sodium channels): 0.52 µM
IC50 (P-type calcium channels): 9.2 µM

COc1ccc(CCN(Cc2cccc3ccccc23)CC(O)COc2cccc(C)c2)cc1OC (stereo not shown) [Example 9, 1-{[2-(3,4-Dimethoxyphenyl)-ethyl]-naphthalen-1-ylmethylamino}-3-m-tolyloxy-propan-2-ol]
IC50 (P-type calcium channels): 9.9 µM

COc1ccc(CCN(Cc2c[nH]c3ccccc23)CC(O)COc2cccc(C)c2)cc1OC (stereo not shown) [Example 30, 1-[[2-(3,4-Dimethoxyphenyl)ethyl]-(1H-indol-3-ylmethyl)-amino]-3-m-tolyloxypropan-2-ol]
Ki (sodium channels): 0.015 µM
IC50 (P-type calcium channels): 4.5 µM

COc1ccc(CCN(Cc2ccccc2)CC(O)COc2cccc(C(F)(F)F)c2)cc1OC (stereo not shown) [Example 20, 1-{Benzyl-[2-(3,4-dimethoxyphenyl)-ethyl]-amino}-3-(3-trifluoromethylphenoxy)-propan-2-ol]
Ki (sodium channels): 0.62 µM
IC50 (P-type calcium channels): 4.7 µM

COc1ccc(CCN(Cc2ccccc2)CC(O)COc2ccc3c(c2)CCC3)cc1OC (stereo not shown) [Example 16, 1-{Benzyl-[2-(3,4-dimethoxyphenyl)-ethyl]-amino}-3-(indan-5-yloxy)-propan-2-ol]
IC50 (P-type calcium channels): 4.8 µM

COc1ccc(CCN(Cc2ccccc2)CC(O)CSc2cccc(C(F)(F)F)c2)cc1OC (stereo not shown) [Example 21, 1-{Benzyl-[2-(3,4-dimethoxyphenyl)-ethyl]-amino}-3-(3-trifluoromethylphenylsulfanyl)-propan-2-ol]
Ki (sodium channels): 0.44 µM
IC50 (P-type calcium channels): 4.3 µM

COc1ccc(CCN(Cc2cccc(F)c2)CC(O)COc2cccc(C)c2)cc1OC (stereo not shown) [Example 4, 1-[[2-(3,4-Dimethoxyphenyl)-ethyl]-(3-fluorobenzyl)amino]-3-m-tolyloxy-propan-2-ol]
IC50 (P-type calcium channels): 6.6 µM

COc1ccc(CCN(Cc2ccccc2F)CC(O)COc2cccc(C)c2)cc1OC (stereo not shown) [Example 13, 1-[[2-(3,4-Dimethoxyphenyl)-ethyl]-(2-fluorobenzyl)amino]-3-m-tolyloxy-propan-2-ol]
IC50 (P-type calcium channels): 1.8 µM
